Tests used:
[1] = target: T1, human OX2 receptor (Homo sapiens, UniProt O43614); test: Measurement of orexin type 2 receptor agonist activity (calcium fluorescence, Fluo-4 AM, FDSS); type: cell-based; settings: compound at 3 μM; CHO cells forcibly expressing human OX2 receptor; DMSO = 0%, 10 nM orexin A (human) = 100%
T1 construct: expressed in transfected cells
T1 sequence (O43614 1-444): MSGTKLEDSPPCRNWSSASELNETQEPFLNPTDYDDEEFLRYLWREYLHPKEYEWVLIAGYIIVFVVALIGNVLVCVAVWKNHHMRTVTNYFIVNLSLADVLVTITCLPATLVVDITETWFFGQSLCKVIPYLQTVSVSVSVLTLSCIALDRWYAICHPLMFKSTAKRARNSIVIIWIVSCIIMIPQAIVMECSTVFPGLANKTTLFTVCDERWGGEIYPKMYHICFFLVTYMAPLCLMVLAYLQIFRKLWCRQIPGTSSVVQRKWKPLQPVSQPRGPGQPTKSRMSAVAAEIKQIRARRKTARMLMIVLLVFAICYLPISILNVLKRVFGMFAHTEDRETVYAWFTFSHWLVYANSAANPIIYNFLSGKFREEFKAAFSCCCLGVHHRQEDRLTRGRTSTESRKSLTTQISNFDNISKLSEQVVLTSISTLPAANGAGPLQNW
Summary of the method: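 CHO-K1 cells stably expressing human OX2 receptor (residues 1-444) loaded with Fluo-4 AM in HBSS/20 mM HEPES/0.1% BSA with probenecid, 30 min at 37° C. then 30 min at room temperature. After compound addition, calcium fluorescence read for 1 min 40 s; activity (%) scaled to DMSO (0%) and 10 nM orexin A (100%).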

[2] = test system: cynomolgus monkeys; test: Evaluation of wake-promoting effects in cynomolgus monkeys (EEG, EMG, locomotor activity); type: in vivo, cynomolgus monkey; settings: 3 mg/kg p.o. at zeitgeber time 12, male cynomolgus monkeys, time spent in wakefulness for 4 hours after administration
Procedure: The wake-promoting effects were evaluated by measuring the electroencephalogram (EEG), electromyogram (EMG) and locomotor activity in cynomolgus monkeys. Under isoflurane anesthesia (0.5-5%, Pfizer Japan Inc., Tokyo, Japan), male cynomolgus monkeys (2-3 years old, Hamri Co., Ltd., Ibaraki, Japan) were surgically implanted with radio-telemetry transmitters (L03-F3, Data Sciences International Inc., MN, USA). The two EEG electrodes were stereotaxically positioned at the parietal area and secured to the cranium with stainless-steel screws in contact with the dura. Bilateral EMG electrodes were implanted into the back cervical muscles.
After at least a 1-month recovery period in home cages, the monkeys were habituated to the recording chamber (an acrylic cage 60 W×55 D×75 H (cm)) located in a soundproof and electrically shielded room by the time animals sleep sufficiently in the experimental room. Cortical EEG, EMG and locomotor activity were recorded using the telemetry system (PhysioTel Digital telemetry platform, Data Sciences International Inc.). The signals were semi-automatically scored in 20-second epochs by a sleep scoring system (SleepSign, Kissei Comtec Co., Ltd., Nagano, Japan).
Test compound (3 mg/kg) suspended in 0.5% methylcellulose aqueous solution or vehicle (i.e., 0.5% methylcellulose aqueous solution) was administered orally (p.o.) to monkeys at zeitgeber time 12 in a volume of 5 mL/kg body weight with a pretest-posttest design (n=2), and then EEG, EMG and locomotor activity were recorded. The time spent in wakefulness for 4 hours after administration (% of vehicle treatment) was calculated by using SleepSign.

| Compound | OX2R agonist activity (3 μM, %) [1] [%] | Wakefulness time (% of vehicle treatment) (Mean, n = 2) [2] |
| --- | --- | --- |
| Cc1cnc([C@@H]2CC(N3C[C@@H](NS(C)(=O)=O)C(F)(F)C3)=NO2)c(-c2c(F)cc(F)cc2F)c1 [Example 11, N-[(3R)-4,4-difluoro-1-{(5S)-5-[5-methyl-3-(2,4,6-trifluorophenyl)pyridin-2-yl]-4,5-dihydro-1,2-oxazol-3-yl}pyrrolidin-3-yl]methanesulfonamide] | 96 | 638.80 % of vehicle treatment |
| CS(=O)(=O)N[C@@H]1CN(C2=NO[C@](CF)(c3ncc(F)cc3-c3c(F)cccc3F)C2)CC1(F)F [Example 109, N-[(3R)-1-{(5S)-5-[3-(2,6-difluorophenyl)-5-fluoropyridin-2-yl]-5-(fluoromethyl)-4,5-dihydro-1,2-oxazol-3-yl}-4,4-difluoropyrrolidin-3-yl]methanesulfonamide] | 101 | 558.37 % of vehicle treatment |
| O=S(=O)(CF)N[C@@H]1CN(C2=NO[C@](CF)(c3ncc(F)cc3-c3c(F)cccc3F)C2)CC1(F)F [Example 149, N-[(3R)-1-{(5S)-5-[3-(2,6-difluorophenyl)-5-fluoropyridin-2-yl]-5-(fluoromethyl)-4,5-dihydro-1,2-oxazol-3-yl}-4,4-difluoropyrrolidin-3-yl]-1-fluoromethanesulfonamide] | 96 | 282.21 % of vehicle treatment |
| O=S(=O)(CF)N[C@@H]1CN(C2=NO[C@](CF)(c3ncc(F)cc3-c3c(F)cccc3F)C2)C[C@@H]1F [Example 162, N-[(3R,4S)-1-{(5S)-5-[3-(2,6-difluorophenyl)-5-fluoropyridin-2-yl]-5-(fluoromethyl)-4,5-dihydro-1,2-oxazol-3-yl}-4-fluoropyrrolidin-3-yl]-1-fluoromethanesulfonamide] | 103 | – |
| O=S(=O)(CF)N[C@@H]1CN(C2=NOC(CF)(c3ncc(F)cc3-c3c(F)cc(F)cc3F)C2)C[C@@H]1F (stereo partly drawn) [Example 163, 1-fluoro-N-[(3R,4S)-4-fluoro-1-{5-(fluoromethyl)-5-[5-fluoro-3-(2,4,6-trifluorophenyl)pyridin-2-yl]-4,5-dihydro-1,2-oxazol-3-yl}pyrrolidin-3-yl]methanesulfonamide] | 98 | – |
| C[C@@]1(c2ncc(F)cc2-c2c(F)cccc2F)CC(N2C[C@@H](NS(C)(=O)=O)C(F)(F)C2)=NO1 [Example 165, N-[(3R)-1-{(5S)-5-[3-(2,6-difluorophenyl)-5-fluoropyridin-2-yl]-5-methyl-4,5-dihydro-1,2-oxazol-3-yl}-4,4-difluoropyrrolidin-3-yl]methanesulfonamide] | 100 | 716.25 % of vehicle treatment |
| CS(=O)(=O)N[C@@H]1CN(C2=NOC(c3c(F)cc(F)c(F)c3-c3c(F)cccc3F)C2)C[C@@H]1F (stereo partly drawn) [Example 166, N-{(3R,4S)-4-fluoro-1-[5-(2′,3,5,6,6′-pentafluoro[1,1′-biphenyl]-2-yl)-4,5-dihydro-1,2-oxazol-3-yl]pyrrolidin-3-yl}methanesulfonamide] | 102 | – |
| O=S(=O)(CF)N[C@@H]1CN(C2=NOC(c3c(F)cc(F)cc3-c3c(F)cccc3F)C2)CC1(F)F (stereo partly drawn) [Example 169, N-{(3R)-4,4-difluoro-1-[5-(2′,3,5,6′-tetrafluoro[1,1′-biphenyl]-2-yl)-4,5-dihydro-1,2-oxazol-3-yl]pyrrolidin-3-yl}-1-fluoromethanesulfonamide] | 98 | – |
| O=S(=O)(CF)N[C@@H]1CN(C2=NOC(c3c(F)cccc3-c3c(F)cccc3F)C2)CC1(F)F (stereo partly drawn) [Example 170, N-{(3R)-4,4-difluoro-1-[5-(2′,3,6′-trifluoro[1,1′-biphenyl]-2-yl)-4,5-dihydro-1,2-oxazol-3-yl]pyrrolidin-3-yl}-1-fluoromethanesulfonamide] | 102 | – |
| CS(=O)(=O)N[C@@H]1CN(C2=NOC(c3c(F)cc(Cl)cc3-c3ncc(F)cc3F)C2)CC1(F)F (stereo partly drawn) [Example 171, N-[(3R)-1-{5-[4-chloro-2-(3,5-difluoropyridin-2-yl)-6-fluorophenyl]-4,5-dihydro-1,2-oxazol-3-yl}-4,4-difluoropyrrolidin-3-yl]methanesulfonamide] | 109 | – |
| CS(=O)(=O)N[C@@H]1CN(C2=NOC(c3c(F)cc(F)c(F)c3-c3c(F)cccc3F)C2)CC1(F)F (stereo partly drawn) [Example 172, N-{(3R)-4,4-difluoro-1-[5-(2′,3,5,6,6′-pentafluoro[1,1′-biphenyl]-2-yl)-4,5-dihydro-1,2-oxazol-3-yl]pyrrolidin-3-yl}methanesulfonamide] | 99 | – |
| O=S(=O)(CF)N[C@@H]1CN(C2=NOC(c3c(F)ccc(F)c3-c3c(F)cccc3F)C2)CC1(F)F (stereo partly drawn) [Example 173, N-{(3R)-4,4-difluoro-1-[5-(2′,3,6,6′-tetrafluoro[1,1′-biphenyl]-2-yl)-4,5-dihydro-1,2-oxazol-3-yl]pyrrolidin-3-yl}-1-fluoromethanesulfonamide] | 100 | – |
| O=S(=O)(CF)N[C@@H]1CN(C2=NOC(c3c(F)cc(F)c(F)c3-c3c(F)cccc3F)C2)CC1(F)F (stereo partly drawn) [Example 174, N-{(3R)-4,4-difluoro-1-[5-(2′,3,5,6,6′-pentafluoro[1,1′-biphenyl]-2-yl)-4,5-dihydro-1,2-oxazol-3-yl]pyrrolidin-3-yl}-1-fluoromethanesulfonamide] | 107 | – |
| COc1cccc(F)c1-c1cc(C)cc(F)c1C1CC(N2C[C@@H](NS(C)(=O)=O)C(F)(F)C2)=NO1 (stereo partly drawn) [Example 175, N-{(3R)-1-[5-(2′,3-difluoro-6′-methoxy-5-methyl[1,1′-biphenyl]-2-yl)-4,5-dihydro-1,2-oxazol-3-yl]-4,4-difluoropyrrolidin-3-yl}methanesulfonamide] | 112 | – |
| Cc1cc(F)c(C2CC(N3C[C@@H](NS(C)(=O)=O)C(F)(F)C3)=NO2)c(-c2ncccc2F)c1 (stereo partly drawn) [Example 176, N-[(3R)-4,4-difluoro-1-{5-[2-fluoro-6-(3-fluoropyridin-2-yl)-4-methylphenyl]-4,5-dihydro-1,2-oxazol-3-yl}pyrrolidin-3-yl]methanesulfonamide] | 109 | – |
| Cc1cc(F)c(C2CC(N3C[C@@H](NS(=O)(=O)CF)C(F)(F)C3)=NO2)c(-c2ncc(F)cc2F)c1 (stereo partly drawn) [Example 177, N-[(3R)-1-{5-[2-(3,5-difluoropyridin-2-yl)-6-fluoro-4-methylphenyl]-4,5-dihydro-1,2-oxazol-3-yl}-4,4-difluoropyrrolidin-3-yl]-1-fluoromethanesulfonamide] | 106 | – |
| Cc1cc(F)c(C2CC(N3C[C@H](F)[C@H](NS(C)(=O)=O)C3)=NO2)c(-c2ncc(F)cc2F)c1 (stereo partly drawn) [Example 178, N-[(3R,4S)-1-{5-[2-(3,5-difluoropyridin-2-yl)-6-fluoro-4-methylphenyl]-4,5-dihydro-1,2-oxazol-3-yl}-4-fluoropyrrolidin-3-yl]methanesulfonamide] | 111 | – |

From US20240217957A1, “HETEROCYCLIC COMPOUND AND USE THEREOF” (TAKEDA PHARMACEUTICAL COMPANY LIMITED, priority 2022, published 2024)
